# Test results as given in patent US10899910B2, “Quaternary cationic polymers” (ECOLAB USA, INC., priority 2016, dated 2021).
# Tests used:
# [1] = test system: bacterial spores or thermophiles; assay: Anti-spore and anti-thermophile activity; format: cell-based; settings: about 20 ppm; for Log Reduction: vs control
# Protocol: The effect of the compounds on bacterial spores or thermophiles was also tested. Compounds 1 and 4 were incubated separately with spores or thermophiles at a concentration of about 20 ppm, and the reduction in concentration was measured at four time points (See Table 3).
# [2] = test system: mixture of aerobic populations from more than 30 cooling systems in North America; assay: Non-oxidative antimicrobial efficiency test in cooling water (ASTM E645-02a); format: cell-based, bacteria (specific species not identified); settings: at the tested concentrations
# Protocol: Antimicrobial efficiency of the synthesized compounds was tested using a non-oxidative antimicrobial efficiency test procedure according to ASTM method for microbiocide efficiency in cooling water (E645-02a, 2005). The bacteria used in the efficacy testing comprised a mixture of aerobic populations from more than 30 cooling systems in North America. The specific species were not identified. Those species were grown on R2A agar.
# In one experiment, various concentrations (0 ppm, 5 ppm, 10 ppm, 20 ppm, 30 ppm, 40 ppm, and 50 ppm) of Compound 1 were applied to bacteria in water. The log 10 concentration in colony forming units (CFU/ml) was measured at four time points (0 min, 60 min, 240 min, and 1440 min).
# The microbial activity of Compounds 1-4 at a concentration of 50 ppm was tested according to the same procedure described above.
# The antimicrobial activity of Compound 4 was tested using the same procedures as described above.
# [3] = Surface tension measurement (Tracker tensiometer); format: physicochemical; settings: room temperature
# Protocol: Surface tension measurements were conducted on a Tracker tensiometer (Teclis Instruments) at room temperature. Various concentrations of surfactant solutions were prepared and measurements were conducted.
# The surface tension as a function of concentration of the cationic surfactant samples were measured and are listed in Table 2, where NT means not tested.
# [4] = test system: collection of aerobic bacteria from 30 water samples in cooling towers across North America; assay: Biofilm reduction (biofilm inhibition test, stain absorbance at 590 nm); format: cell-based; settings: for (Comp. - Single Quat 2)*100 / Single Quat 2: biofilm reduction relative to Single Quat 2
# Protocol: Biofilm reduction experiments were conducted to test the efficacy of multi-quaternary cationic polymers compared to single quaternary compounds. Two different compositions were prepared containing single quaternary compounds: a composition (Single Quat 1) comprising about 50% by weight bisoctyl dimethyl ammonium chloride (CAS #5538-94-3) and about 5-10% by weight glycerin; and a composition (Single Quat 2) comprising about 50% by weight didecyl-dimethyl ammonium chloride (CAS #7173-51-5) and about 10-30% by weight ethanol. The test bacteria comprised a collection of aerobic bacteria from 30 water samples in cooling towers across North America. Different concentrations of cationic polymer salts and single quaternary compounds were tested ranging from about 0.8 ppm to about 1000 ppm. Using the biofilm inhibition test protocols, the absorbed stains were extracted and absorbance was measured at 590 nm. The biofilm reduction was calculated by comparing the absorbance of treated vs untreated controls, then averaged over six replicates.
# [5] = Corrosion bubble cell test (Linear Polarization Resistance); settings: 2 ppm with 1% 2ME synergist; CO2-saturated brine/hydrocarbon, 80° C.; three hours baseline (Tables 8, 9)
# Protocol: (§1) Cationic polymer salts were evaluated for corrosion performance as compared to a C12-C18 alkyl dimethyl benzyl ammonium chloride via a bubble test procedure. The bubble test simulates low flow areas where little or no mixing of water and oil occurs. The test was conducted using brine (80% of the brine being 3% sodium chloride brine and 20% of the brine being a hydrocarbon containing 75% LVT-200 kerosene oil and 25% xylene). The brine was placed into kettles and purged with carbon dioxide. The brine was continually purged with carbon dioxide to saturate the brine prior to starting the test. After the test began, the test cell was blanketed with carbon dioxide one hour prior to electrode insertion and through the duration of the test to maintain saturation. The kettles were stirred at 150 revolutions per minute (rpm) for the duration of the test to maintain thermal equilibrium at 80° C. The corrosion rate was measured by Linear Polarization Resistance (LPR) techniques. The working electrode used was carbon steel. The counter and reference electrodes were both 1018 carbon steel. The electrodes were all cleaned and polished prior to testing. Data were collected for three hours before 20 ppm of each of the compositions (containing 2 ppm of each of various pentaquaternary cationic polymer salts or the comparative C12-C18 alkyl dimethyl benzyl ammonium chloride and 1% 2-mercaptoethanol (2ME) as synergist in an organic solvent) was dosed into its respective cell. Data were collected overnight. A low concentration of the compositions was used to differentiate between the compositions.
# Corrosion bubble cell tests were performed according to the method of Example A1 to evaluate a hexaquaternary cationic polymer salt for corrosion performance as compared to a C12-C18 alkyl dimethyl benzyl ammonium chloride. Data were collected for three hours before 20 ppm of each of the compositions (containing 2 ppm of a hexaquaternary cationic polymer salt or the comparative C12-C18 alkyl dimethyl benzyl ammonium chloride and 1% 2ME as synergist in an organic solvent) was dosed into its respective cell. Data were collected overnight. A low concentration of the compositions was used to differentiate between the compositions.
# as §1, with “six” for “three”, “polyethyleneimine-based” for “pentaquaternary”, “cell. However, for the comparative composition, data was only collected three hours before addition of the compositions.” for “cell.”
structure (smiles),measurement,setting,value
CCCCCCCCCCCCCCCCCC[N+](C)(C)CC(O)CN(CCN(CC(O)C[N+](C)(C)C)CC(O)C[N+](C)(C)CCCCCCCCCCCCCCCCCC)CCN(CC(O)C[N+](C)(C)C)CC(O)C[N+](C)(C)CCCCCCCCCCCCCCCCCC.[Cl-].[Cl-].[Cl-].[Cl-].[Cl-] (centres unmarked) [Compound 4],Log cfu/ml,[1]; contact time 0 min,2.53 Log cfu/ml
same,Log Reduction,[1]; contact time 0 min,−0.04
same,Log cfu/ml,[1]; contact time 60 min,1.6 Log cfu/ml
same,Log Reduction,[1]; contact time 60 min,0.74
same,Log cfu/ml,[1]; contact time 240 min,0.00 Log cfu/ml
same,Log Reduction,[1]; contact time 240 min,2.48
same,Log cfu/ml,[1]; contact time 1440 min,1.78 Log cfu/ml
same,Log Reduction,[1]; contact time 1440 min,0.75
same,antimicrobial activity,[2],significant antimicrobial activity
CCCCCCCCCCCCCCCCCC[N+](C)(C)CC(O)CN(CCN(CCN(CC(O)C[N+](C)(C)C)CC(O)C[N+](C)(C)CCCCCCCCCCCCCCCCCC)CC(O)C[N+](C)(C)C)CC(O)C[N+](C)(C)C.[Cl-].[Cl-].[Cl-].[Cl-].[Cl-] (centres unmarked) [Compound 9],Surface tension,[3]; concentration 0.010 %,73.11 mN/m
same,Surface tension,[3]; concentration 0.025 %,69.16 mN/m
same,Surface tension,[3]; concentration 0.050 %,60.77 mN/m
same,Surface tension,[3]; concentration 0.100 %,54.69 mN/m
same,Surface tension,[3]; concentration 0.200 %,52.05 mN/m
same,Surface tension,[3]; concentration 0.500 %,50.09 mN/m
same,Surface tension,[3]; concentration 1.000 %,49.38 mN/m
same,Biofilm reduction,[4]; active conc. 0.8 ppm,20.5%
same,(Comp. - Single Quat 2)*100 / Single Quat 2,[4]; active conc. 0.8 ppm,314.7%
same,Biofilm reduction,[4]; active conc. 1.6 ppm,35.9%
same,(Comp. - Single Quat 2)*100 / Single Quat 2,[4]; active conc. 1.6 ppm,−9.6%
same,Biofilm reduction,[4]; active conc. 3.0 ppm,41.2%
same,(Comp. - Single Quat 2)*100 / Single Quat 2,[4]; active conc. 3.0 ppm,−43.2%
same,Biofilm reduction,[4]; active conc. 6.0 ppm,45.4%
same,(Comp. - Single Quat 2)*100 / Single Quat 2,[4]; active conc. 6.0 ppm,−11.1%
same,Biofilm reduction,[4]; active conc. 8.0 ppm,62.6%
same,(Comp. - Single Quat 2)*100 / Single Quat 2,[4]; active conc. 8.0 ppm,−8.6%
same,Biofilm reduction,[4]; active conc. 12.0 ppm,70.9%
same,(Comp. - Single Quat 2)*100 / Single Quat 2,[4]; active conc. 12.0 ppm,−13.2%
same,Biofilm reduction,[4]; active conc. 16.0 ppm,79.0%
same,(Comp. - Single Quat 2)*100 / Single Quat 2,[4]; active conc. 16.0 ppm,−15.5%
same,Biofilm reduction,[4]; active conc. 25.0 ppm,76.8%
same,(Comp. - Single Quat 2)*100 / Single Quat 2,[4]; active conc. 25.0 ppm,−15.9%
same,Biofilm reduction,[4]; active conc. 31.0 ppm,46.9%
same,(Comp. - Single Quat 2)*100 / Single Quat 2,[4]; active conc. 31.0 ppm,−50.8%
same,Biofilm reduction,[4]; active conc. 50.0 ppm,77.6%
same,(Comp. - Single Quat 2)*100 / Single Quat 2,[4]; active conc. 50.0 ppm,−15.9%
same,Biofilm reduction,[4]; active conc. 62.0 ppm,90.7%
same,(Comp. - Single Quat 2)*100 / Single Quat 2,[4]; active conc. 62.0 ppm,−0.4%
same,Biofilm reduction,[4]; active conc. 100.0 ppm,97.3%
same,(Comp. - Single Quat 2)*100 / Single Quat 2,[4]; active conc. 100.0 ppm,41.9%
same,Biofilm reduction,[4]; active conc. 125.0 ppm,98.9%
same,(Comp. - Single Quat 2)*100 / Single Quat 2,[4]; active conc. 125.0 ppm,88.6%
same,Biofilm reduction,[4]; active conc. 250.0 ppm,99.5%
same,(Comp. - Single Quat 2)*100 / Single Quat 2,[4]; active conc. 250.0 ppm,55.3%
same,Biofilm reduction,[4]; active conc. 500.0 ppm,99.6%
same,(Comp. - Single Quat 2)*100 / Single Quat 2,[4]; active conc. 500.0 ppm,23.7%
same,Biofilm reduction,[4]; active conc. 1000.0 ppm,99.6%
same,(Comp. - Single Quat 2)*100 / Single Quat 2,[4]; active conc. 1000.0 ppm,33.5%
same,reduction in biofilm formation,[4]; at concentrations about 100 ppm,greater than 95%
same,% Protection,[5],60%
